The source of these data is patent publication US20130331445A1 (Axelar AB, priority 2010, published 2013).

The nature of data set [1]: Solubility in 1% sodium dodecyl sulfate (SDS) by LC-UV. The format is physicochemical. The following applies: aqueous with cosolvent or surfactant or cyclodextrin, thermodynamic from solid, 1% SDS, 24 hours rotation. As to the method:
The solubility was determined in different media by use of LC-UV chromatography. An excess amount of substance was weighed in vials and 0.5 ml of the medium was added. The substance was rotated in the specific medium at ambient temperature for 24 hours, followed by filtering the supernatant using a hydrophilic PVDF (Millipore Corp.) 0.22 μm filter. The samples were then diluted with a 1:1 mixture of mobile phase A and B (see below) and analyzed using an Xterra™ MS C18, 50×2.1 mm column with UV detection at 288 nm. The mobile phase consisted of acetonitrile, water and trifluoroacetic acid, 5:95:0.1(A) and 99:1:0.1(B).

Data set [2] relates to progressive non-small cell lung cancer (NSCLC). Nature of the data set: Phase I/II clinical trial in patients with progressive non-small cell lung cancer. The format is in vivo. As to the method: The patients were assessed with imaging at the start of the study and thereafter every two months.

A word on the solubility: it is the dissolved amount per volume that the medium holds. A higher solubility goes with much dissolved substance. As to `COc1cc(C2c3cc4c(cc3C(O)[C@H]3COC(=O)[C@@H]23)OCO4)cc(OC)c1OC` (stereo partly drawn) [picropodophyllin monohydrate], the solubility at 24 h in data set [1] (ambient temperature) amounted to 210 µg/mL; in data set [1] (corresponds to the mg/ml value), 489 µM. For the same compound, the “patients with partial response according to RECIST criteria” value in data set [2] (NSCLC patients, 390 or 520 mg twice-daily) is listed as “one”. The “patients still alive at cut-off” value in data set [2] (of ten NSCLC patients, 390 or 520 mg twice-daily) is recorded as “five”. The “patients with no detectable progression at cut-off” value in data set [2] (of the five NSCLC patients still alive, 390 or 520 mg twice-daily) was “two”. The median survival time in data set [2] (ten NSCLC patients, 390 or 520 mg twice-daily monotherapy, at least two weeks, expected median survival less than 20 weeks) worked out at 42 weeks.
